The target in the experiment is T1, mouse I7 receptor (mI7) (Mus musculus, UniProt Q9QWU6).
T1 sequence (Q9QWU6 1-327): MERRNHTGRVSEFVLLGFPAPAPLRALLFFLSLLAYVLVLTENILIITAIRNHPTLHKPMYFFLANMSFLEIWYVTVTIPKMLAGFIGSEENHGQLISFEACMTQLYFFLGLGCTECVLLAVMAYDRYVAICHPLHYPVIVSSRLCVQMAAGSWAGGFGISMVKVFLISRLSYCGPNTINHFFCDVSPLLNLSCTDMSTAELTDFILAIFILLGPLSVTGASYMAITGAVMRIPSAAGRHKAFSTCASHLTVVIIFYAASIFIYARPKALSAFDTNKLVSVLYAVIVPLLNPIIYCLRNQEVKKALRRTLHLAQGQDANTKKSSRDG

What is called EC50 is the midpoint of the concentration-response curve. A high value points to lower potency in that assay. In turn, `CCCCCCC=O` [7al, heptanal] came in with an EC50 of around 6.3 µM.

`CCCCCCCC=O` [8al, octanal] displayed an EC50 of around 63.1 µM.

(Values after paper PMC2901914 (Neuron, 2010).)
